In paper PMC8360157, “The chemical compound ‘Heatin’ stimulates hypocotyl elongation and interferes with the Arabidopsis NIT1‐subfamily of nitrilases” (The Plant Journal, 2021):

Target: T1, NIT1 (NITRILASE1) (Arabidopsis thaliana, UniProt P32961)
T1 construct: recombinant, 6xHis-tagged, expressed in Escherichia coli, (NH4)2SO4 precipitation, Ni-NTA and PD-10 purified; tag cleavage not mentioned
T1 sequence (P32961 2-346): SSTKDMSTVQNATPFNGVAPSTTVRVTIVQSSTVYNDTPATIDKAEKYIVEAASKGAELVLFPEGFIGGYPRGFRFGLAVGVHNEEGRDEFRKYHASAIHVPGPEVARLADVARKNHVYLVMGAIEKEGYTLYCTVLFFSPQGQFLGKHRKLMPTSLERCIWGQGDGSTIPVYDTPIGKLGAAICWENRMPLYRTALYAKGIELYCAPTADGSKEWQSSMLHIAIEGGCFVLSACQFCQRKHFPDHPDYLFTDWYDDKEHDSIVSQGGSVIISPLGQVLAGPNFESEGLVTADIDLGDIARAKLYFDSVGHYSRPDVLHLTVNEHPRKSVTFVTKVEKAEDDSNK
Test: Berthelot colorimetric ammonia assay; IC50 by linear-regression interpolation
Format: biochemical

An IC50 of about 20.7 µM was found for `CC(Nc1cccc2ccccc12)C(=O)NN=Cc1c(O)ccc2ccccc12` (stereo not shown) [D, N'‐[(2‐hydroxy‐1‐naphthyl)methylene]‐2‐(1‐naphthylamino)propanohydrazide] in this work.
